This is an account of results in patent publication US20220356163A1, “SMALL MOLECULE INHIBITORS OF Id PROTEINS” (MEMORIAL SLOAN KETTERING CANCER CENTER, priority 2019, published 2022).

One test concerns the target T1, Id1 (59-104) (Mus musculus, UniProt P20067).
T1 construct: 1 μg of purified Id1 (a.a.59-104) and 19.7 ng of AGX51-XL2; made in house; host or cells: E. coli Rosetta 2(DE3)
The experiment in a line: UV crosslinking of AGX51-XL2 to purified Id1 with mass spectrometry. The class given is binding. To be noted: 10-fold excess of AGX51. The procedure: Covalent binding of AGX51 derivative to Id1. An analog of AGX51 (AGX51-XL2) was used which contains a benzophenone photoreactive moiety. 1 μg of purified Id1 (a.a.59-104) and 19.7 ng of AGX51-XL2 (dissolved in DMSO) were combined, in the dark, and then exposed to UV light for 20 minutes, a negative control without UV exposure was also included. The samples were then run in the dark on a 15% denaturing gel, silver stained according to the manufacturers protocol (SilverQuest Staining Kit, Invitrogen, Grand Island, N.Y., USA) and bands were excised for mass spectrometry as described below.
In-gel digestion for mass spectrometry. In-gel digestion was performed using the method by Shevchenko et al. (Nat Protoc 1(6):2856-60 (2006)). Briefly, gel bands were excised, washed with 1:1 (Acetonitrile: 100 mM ammonium bicarbonate) for 30 minutes, dehydrated with 100% acetonitrile for 10 minutes until gel slices shrunk and excess acetonitrile was removed and slices were dried in a speed-vac for 10 minutes without heat. Gel slices were reduced with 5 mM DTT for 30 minutes at 56° C. in a thermostated mixer with gentle mixing, removed, allowed to cool to room temperature then alkylated with 11 mM IAA for 30 minutes in the dark. Gel slices were washed with 100 mM ammonium bicarbonate and 100% acetonitrile for 10 minutes each. […]

The subject of a further test is PDX-BR11. The experiment in a line: MTT assay, PDX-BR11. To be noted: 24 h, PDX-BR11, PDX cell line, read-out: IC50 value after 24 hours of treatment. The class given is cell-based. The source says: The 4T1 murine mammary tumor cell line and nine breast cancer cell lines representing the major breast cancer subtypes (ER+, HER2+, and TNBC) including MDA-MB-157, MDA-MB-436, MDA-MB-231, MDA-MB-453, MDA-MB-361, BT-474, SK-BR-3, MCF-7 and T47-D will be grown in RPMI or DMEM (Dulbecco's Modified Eagle Medium) media supplemented with 10% FBS (fetal bovine serum), 1% penicillin-streptomycin and 1% L-Glutamine. Patient derived xenograft cell lines BR7, BR11, and IBT will be established directly from breast cancer bone metastases specimens surgically resected from patients with informed consent. BR7 and BR11 specimens will be obtained from ER positive (HER2 negative and PR negative) metastatic breast cancer patients, while the IBT specimen will be obtained from a metastatic, triple negative breast cancer patient. Fresh tumor tissues will be quickly washed with ice cold PBS and minced into about 1-3 mm pieces in MEM medium (without FBS) using sterile razor blades. […] The cells will be treated with either 100 μM DMSO, AGX51, or a compound of the present technology such as AGX-A. The cell morphology and growth will be monitored daily for 1 week by microscopy for changes in morphology or cell death. […] Absorbance will then measured at 570 nm using a plate reader (Synergy 2, BioTek). […]
On the technique in general: Tetrazolium dyes change colour on reduction, which living cells bring about.

T1 sequence (P20067 59-104): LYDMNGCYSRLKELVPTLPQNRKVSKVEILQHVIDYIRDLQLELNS

As usually defined, the IC50 is the midpoint of a concentration-inhibition curve. Consider `CCC(=O)N(CCC(c1ccc2c(c1)OCO2)c1ccccc1OC)Cc1ccccc1` (racemic) [AGX51, N-(3-(benzo[d][1,3]dioxol-5-yl)-3-(2-methoxyphenyl)propyl)-N-benzylpropionamide], for which the “AGX51-XL2 binding to Id1 in presence of competitor” value on Id1 (59-104) is reported as “significant decrease in AGX51-XL2 binding to Id1”. In the test on PDX-BR11, the IC50 was 18.6 µM.
